Experimental data: US20070197591A1, “USE OF PALIPERIDONE FOR THE TREATMENT OF A MENTAL DISORDER IN A PSYCHIATRIC PATIENT WITH REDUCED HEPATIC FUNCTION” (priority 2005, published 2007)
Like-named read-outs stand apart in the source and are kept apart here.

Tests used:
[1] = Safety and tolerability of 1 mg IR paliperidone in healthy and hepatically-impaired subjects; type: in vivo, human
Experimental: Methodology: This was a single-dose, parallel-group, open-label, single-center, Phase I study of IR paliperidone in subjects having either normal or moderately impaired hepatic function. The groups, consisting of 10 subjects each, were demographically matched with respect to age, weight, sex, and ethnicity. The study consisted of a screening period of up to 3 weeks and an open-label, single-dose treatment period (Days 1 through 5). On Day 1, a single dose of 1 mg IR paliperidone oral solution was administered after a fast of at least 10 hours; subjects continued to fast for 4 hours following study drug administration. The 96-hour follow-up consisted of serial sample collection of blood and urine for pharmacokinetic analysis and safety and tolerability assessments. Subjects remained confined to the study site through the 72-hour pharmacokinetics sampling, and consumed standard institutional meals while in the study site. Subjects were released after the 72-hour sampling, then returned to the study site on Day 5 before the 96-hour pharmacokinetics sampling: end-of-study procedures were performed immediately hereafter. A blood sample for DNA isolation was collected to allow for genetic analysis as necessary. Safety: Adverse events, clinical laboratory tests, including prolactin, vital sign measurements, physical examinations, and 12-lad electrocardiograms (ECGs) were analyzed to assess safety. Safety: All subjects were analyzed; statistical analyses were description [? Does info need to be added here?].

[2] = Single-dose pharmacokinetics of IR paliperidone in subjects with moderate hepatic impairment vs normal hepatic function; type: in vivo, human; conditions: for CL renal / AUC(0-inf) / half-life / Tmax / Cmax: both sexes, human, 1 mg; for CL renal: plasma and urine; for AUC(0-inf) / half-life / Tmax / Cmax: plasma; for half-life: read-out: t1/2 (terminal half-life) (converted); for Tmax: read-out: tmax, median (range); for Ae, % dose: urine
Text: Objectives: The primary objective of this study was to investigate the single-dose pharmacokinetics of immediate-release (IR) paliperidone, after oral administration, in subjects having moderate hepatic impairment (“hepatically-impaired subjects”) compared with subjects having normal hepatic function (“healthy subjects”). The secondary objective was to document the plasma protein binding and disposition of the enantiomers of paliperidone. In addition, the tolerability and safety profile of IR paliperidone was compared between hepatically impaired subjects and healthy subjects. Methodology: This was a single-dose, parallel-group, open-label, single-center, Phase I study of IR paliperidone in subjects having either normal or moderately impaired hepatic function. The groups, consisting of 10 subjects each, were demographically matched with respect to age, weight, sex, and ethnicity. The study consisted of a screening period of up to 3 weeks and an open-label, single-dose treatment period (Days 1 through 5). On Day 1, a single dose of 1 mg IR paliperidone oral solution was administered after a fast of at least 10 hours; subjects continued to fast for 4 hours following study drug administration. The 96-hour follow-up consisted of serial sample collection of blood and urine for pharmacokinetic analysis and safety and tolerability assessments. Subjects remained confined to the study site through the 72-hour pharmacokinetics sampling, and consumed standard institutional meals while in the study site. Subjects were released after the 72-hour sampling, then returned to the study site on Day 5 before the 96-hour pharmacokinetics sampling: end-of-study procedures were performed immediately hereafter. A blood sample for DNA isolation was collected to allow for genetic analysis as necessary. Diagnosis and Main Criteria for Inclusion: The study was conducted in men and women, aged 18 through 75 years, inclusive. One group of subjects had moderate hepatic impairment, with stable hepatic disease, a total Child-Pugh score of between 7 and 9, inclusive, and blood pressure that was controlled and stable on antihypertensive agents; the other group had normal hepatic function. Test Product, Dose and Mode of Administration, Batch No: 1 mg IR paliperidone (R076477) oral solution; batch 04C29/[…]. Criteria for Evaluation: Pharmacokinetics: Plasma and urine concentrations of the paliperidone enantiomers (+) R078543 and (-) R078544 were determined using an LC-MS/MS method. Concentrations of paliperidone were calculated as the sum of the enantiomer concentrations. In addition, serum and urine concentrations of creatinine were determined for the calculation of CLCR. The protein binding and unbound fraction was determined for the 2 paliperidone enantiomers. The unbound fraction for paliperidone was calculated. Based on the actual pharmacokinetic blood sampling times and actual urine collection periods, the following plasma and urine pharmacokinetic parameters were determined for paliperidone and its enantiomers: Cmax, tmax, tlast, AUClast, λZ, t1/2, AUC∞, % AUC∞,ex, CL/F, AUC∞+/- ratio, Ct+/- ratio per time point, unbound AUC∞, unbound CL/F or unbound CL (if relevant), Ae (per collection interval and overall), Ae,% dose, Excr. Rate, […], and CLNR. Pharmacokinetics: Descriptive statistics were evaluated for the plasma concentrations at each sampling time, and for all pharmacokinetic parameters of paliperidone and its enantiomers for each hepatic function group Graphical exploration of the paliperidone and enantiomer plasma concentrations and urine data, and the derived pharmacokinetic parameters, was performed. In addition, the enantiomer disposition was compared between the groups. Log-transformed PK parameters were fit to a general linear model with hepatic function grip as fixed effect.

[3] = hepatically-impaired subjects (n = 10)
[4] = Hepatically-Impaired Subjects, Total
[5] = Hepatically-Impaired Subjects, Unbound
[6] = oral, Healthy Subjects, Unbound
[7] = oral, Hepatically-Impaired Subjects, Total
[8] = oral, Hepatically-Impaired Subjects, Unbound

Cc1nc2n(c(=O)c1CCN1CCC(c3noc4cc(F)ccc34)CC1)CCCC2O (stereo not shown) [Paliperidone, paliperidone]
tolerability ([1]; 1 mg, healthy and hepatically-impaired subjects): tolerated equally well | clinically important abnormal ECG values (including QT values) ([1]; both groups): no subjects had clinically important abnormal ECG values | orthostatic hypotension ([1]; both groups): no subject in either group met the criteria for orthostatic hypotension | subjects with treatment-emergent increase in hepatic enzymes ([1]; healthy subjects): 1 | subjects with increases in prolactin levels reported as adverse events ([1]; healthy subjects (n = 10)): 6 | subjects with treatment-emergent increase in hepatic enzymes ([1]; hepatically-impaired subjects): 1 | subjects reporting dizziness [1, 3]: 2 | subjects with increases in prolactin levels reported as adverse events [1, 3]: 8 | CL/F ([2]; Healthy Subjects, Total): 106 ± 34.9 mL/min | CLNR ([2]; Healthy Subjects, Total): 54.4 ± 23.7 mL/min | Vdz ([2]; Healthy Subjects, Total): 211 ± 59.6 L | CL/F ([2]; Healthy Subjects, Unbound): 370 ± 67.1 mL/min | CLNR ([2]; Healthy Subjects, Unbound): 188 ± 56.8 mL/min | Vdz ([2]; Healthy Subjects, Unbound): 748 ± 144 L | CL/F [2, 4]: 143 ± 43.4 mL/min | CLNR [2, 4]: 75.1 ± 16.2 mL/min | Vdz [2, 4]: 311 ± 65.2 L | CL/F [2, 5]: 386 ± 99.3 mL/min | CLNR [2, 5]: 205 ± 30.7 mL/min | Vdz [2, 5]: 857 ± 146 L | clearance and volume of distribution between the groups ([2]; based on unbound concentrations): comparable | Active renal clearance as share of the renal clearance ([2]; both groups): approximately 45% | median time to reach maximum plasma concentration ([2]; both groups): around 1 hour | CL renal ([2]; oral, Healthy Subjects, Total, read-out: CLR): 51.2 ± 13.4 mL/min | CL renal ([2]; oral, Hepatically-Impaired Subjects, Total, read-out: CLR): 67.4 ± 34 mL/min | CL renal ([2]; oral, healthy subjects (second value of '67.4 vs. 51.2'), read-out: Renal clearance): 51.2 mL/min | CL renal ([2]; oral, hepatically-impaired subjects (first value of '67.4 vs. 51.2'), read-out: Renal clearance): 67.4 mL/min | AUC(0-inf) ([2]; oral, Healthy Subjects, Total): 176 ± 64.4 ng·h/mL | half-life ([2]; oral, Healthy Subjects, Total): 23.6 h | Tmax ([2]; oral, Healthy Subjects, Total): 1 h | AUC(0-inf) [2, 6]: 45.8 ± 8.72 ng·h/mL | Cmax [2, 6]: 1.81 ± 0.292 ng/mL | Tmax [2, 6]: 1.25 h | AUC(0-inf) [2, 7]: 128 ± 42.5 ng·h/mL | Cmax [2, 7]: 4.57 ± 1.05 ng/mL | half-life [2, 7]: 26.5 h | Tmax [2, 7]: 1.25 h | AUC(0-inf) [2, 8]: 45.7 ± 12.6 ng·h/mL | Cmax [2, 8]: 1.59 ± 0.318 ng/mL | Tmax [2, 8]: 1.25 h | Cmax ([2]; po, Healthy Subjects, Total, 1 mg IR oral solution): 7.14 ± 2.28 ng/mL | dose excreted unchanged into urine ([2]; did not differ between the groups): Approximately 50% | CL/F higher in hepatically-impaired compared with healthy subjects ([2]; total): about 35% | volume of distribution higher in hepatically-impaired compared with healthy subjects ([2]; total Paliperidone): 47% | exposure (Cmax, AUC∞) between hepatic function groups after correction for unbound fraction ([2]; unbound): comparable | AUC∞ lower in hepatically-impaired compared with healthy subjects ([2]; unbound fraction): approximately 5% | Cmax lower in hepatically-impaired compared with healthy subjects ([2]; unbound fraction): approximately 12% | Ae, % dose ([2]; Healthy Subjects): 50.1 ± 7.94 % dose | Ae, % dose ([2]; Hepatically-Impaired Subjects): 44.7 ± 10.62 % dose
